Laboratory results published in the supplement of paper PMC10307832.

Assays:
Test in all cases: relative viability (nuclei count vs DMSO), 5 days (fraction); higher = more cells survive
H3255 = tested on: H3255
Method in brief: (§1)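 Relative viability divides the nuclei count in treated wells by that in vehicle wells. Lung cancer cell lines were seeded in 1536-well plates, dosed by pin tool the next day, and fixed and stained after 5 days in one step with final 0.05% Triton X-100, 1% formaldehyde and 1 ug/ml Hoechst. Dosing was a single drug or a fixed anchor-drug dose plus five library-drug doses (not always all listed) in √10 steps, and values are medians of duplicate plates imaged at 4×.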

SK-LU-1 = tested on: SK-LU-1
Method in brief: as §1

NCI-H358 = tested on: NCI-H358
Method in brief: as §1

NCI-H2405 = tested on: NCI-H2405
Method in brief: as §1

NCI-H1648 = tested on: NCI-H1648
Method in brief: as §1

BEN = tested on: BEN
Method in brief: as §1

NCI-H1650 = tested on: NCI-H1650
Method in brief: as §1

UMC-11 = tested on: UMC-11
Method in brief: as §1

A-427 = tested on: A-427
Method in brief: as §1

NCI-H1666 = tested on: NCI-H1666
Method in brief: as §1

NCI-H727 = tested on: NCI-H727
Method in brief: as §1

NCI-H2126 = tested on: NCI-H2126
Method in brief: as §1

NCI-H2087 = tested on: NCI-H2087
Method in brief: as §1

NCI-H2009 = tested on: NCI-H2009
Method in brief: as §1

NCI-H3122 = tested on: NCI-H3122
Method in brief: as §1

EKVX = tested on: EKVX
Method in brief: as §1

NCI-H520 = tested on: NCI-H520
Method in brief: as §1

NCI-H441 = tested on: NCI-H441
Method in brief: as §1

NCI-H322M = tested on: NCI-H322M
Method in brief: as §1

NCI-H23 = tested on: NCI-H23
Method in brief: as §1

NCI-H1755 = tested on: NCI-H1755
Method in brief: as §1

NCI-H1437 = tested on: NCI-H1437
Method in brief: as §1

NCI-H2347 = tested on: NCI-H2347
Method in brief: as §1

ChaGo-K-1 = tested on: ChaGo-K-1
Method in brief: as §1

Question: Which results are given for Oc1nc(-c2ccc(C(F)(F)F)cc2)nc2c1CSCC2 [XAV939] + CC(=O)c1c(C)c2cnc(Nc3ccc(N4CCNCC4)cn3)nc2n(C2CCCC2)c1=O [Palbociclib] (partner 0.5 µM)?
Answer: relative viability (H3255; first compound 0.08 µM): 0.311; relative viability (H3255; first compound 0.253 µM): 0.317; relative viability (H3255; first compound 0.8 µM): 0.314; relative viability (H3255; first compound 2.53 µM): 0.291; relative viability (SK-LU-1; first compound 0.08 µM): 0.387; relative viability (SK-LU-1; first compound 0.253 µM): 0.335; relative viability (SK-LU-1; first compound 0.8 µM): 0.396; relative viability (SK-LU-1; first compound 2.53 µM): 0.394; relative viability (NCI-H358; first compound 0.08 µM): 0.149; relative viability (NCI-H358; first compound 0.253 µM): 0.109; relative viability (NCI-H358; first compound 0.8 µM): 0.154; relative viability (NCI-H358; first compound 2.53 µM): 0.166; relative viability (NCI-H2405; first compound 0.08 µM): 0.554; relative viability (NCI-H2405; first compound 0.253 µM): 0.513; relative viability (NCI-H2405; first compound 0.8 µM): 0.492; relative viability (NCI-H2405; first compound 2.53 µM): 0.386; relative viability (NCI-H1648; first compound 0.253 µM): 0.28; relative viability (NCI-H1648; first compound 0.8 µM): 0.27; relative viability (NCI-H1648; first compound 2.53 µM): 0.216; relative viability (BEN; first compound 0.08 µM): 0.508; relative viability (BEN; first compound 0.253 µM): 0.438; relative viability (BEN; first compound 0.8 µM): 0.485; relative viability (BEN; first compound 2.53 µM): 0.45; relative viability (NCI-H1650; first compound 0.08 µM): 0.268; relative viability (NCI-H1650; first compound 0.253 µM): 0.297; relative viability (NCI-H1650; first compound 0.8 µM): 0.299; relative viability (NCI-H1650; first compound 2.53 µM): 0.234; relative viability (UMC-11; first compound 0.08 µM): 0.326; relative viability (UMC-11; first compound 0.253 µM): 0.287; relative viability (UMC-11; first compound 0.8 µM): 0.355; relative viability (UMC-11; first compound 2.53 µM): 0.232; relative viability (A-427; first compound 0.08 µM): 0.525; relative viability (A-427; first compound 0.253 µM): 0.52; relative viability (A-427; first compound 0.8 µM): 0.502; relative viability (A-427; first compound 2.53 µM): 0.504; relative viability (NCI-H1666; first compound 0.08 µM): 0.678; relative viability (NCI-H1666; first compound 0.253 µM): 0.552; relative viability (NCI-H1666; first compound 0.8 µM): 0.623; relative viability (NCI-H1666; first compound 2.53 µM): 0.64; relative viability (NCI-H727; first compound 0.08 µM): 0.711; relative viability (NCI-H727; first compound 0.8 µM): 0.642; relative viability (NCI-H727; first compound 2.53 µM): 0.644; relative viability (NCI-H2126; first compound 0.08 µM): 0.301; relative viability (NCI-H2126; first compound 0.253 µM): 0.352; relative viability (NCI-H2126; first compound 0.8 µM): 0.35; relative viability (NCI-H2126; first compound 2.53 µM): 0.336; relative viability (NCI-H2087; first compound 0.08 µM): 0.325; relative viability (NCI-H2087; first compound 0.253 µM): 0.182; relative viability (NCI-H2087; first compound 0.8 µM): 0.224; relative viability (NCI-H2087; first compound 2.53 µM): 0.164; relative viability (NCI-H2009; first compound 0.08 µM): 0.275; relative viability (NCI-H2009; first compound 0.253 µM): 0.239; relative viability (NCI-H2009; first compound 0.8 µM): 0.188; relative viability (NCI-H2009; first compound 2.53 µM): 0.317; relative viability (NCI-H3122; first compound 0.08 µM): 0.2; relative viability (NCI-H3122; first compound 0.253 µM): 0.196; relative viability (NCI-H3122; first compound 0.8 µM): 0.184; relative viability (NCI-H3122; first compound 2.53 µM): 0.153; relative viability (EKVX; first compound 0.08 µM): 0.383; relative viability (EKVX; first compound 0.253 µM): 0.343; relative viability (EKVX; first compound 0.8 µM): 0.34; relative viability (EKVX; first compound 2.53 µM): 0.227; relative viability (NCI-H520; first compound 0.08 µM): 0.252; relative viability (NCI-H520; first compound 0.8 µM): 0.183; relative viability (NCI-H520; first compound 2.53 µM): 0.211; relative viability (NCI-H441; first compound 0.08 µM): 0.222; relative viability (NCI-H441; first compound 0.253 µM): 0.189; relative viability (NCI-H441; first compound 0.8 µM): 0.182; relative viability (NCI-H441; first compound 2.53 µM): 0.189; relative viability (NCI-H322M; first compound 0.08 µM): 0.521; relative viability (NCI-H322M; first compound 0.253 µM): 0.464; relative viability (NCI-H322M; first compound 0.8 µM): 0.456; relative viability (NCI-H322M; first compound 2.53 µM): 0.433; relative viability (NCI-H23; first compound 0.08 µM): 0.529; relative viability (NCI-H23; first compound 0.8 µM): 0.465; relative viability (NCI-H23; first compound 2.53 µM): 0.386; relative viability (NCI-H1755; first compound 0.08 µM): 0.439; relative viability (NCI-H1755; first compound 0.253 µM): 0.341; relative viability (NCI-H1755; first compound 0.8 µM): 0.458; relative viability (NCI-H1755; first compound 2.53 µM): 0.414; relative viability (NCI-H1437; first compound 0.08 µM): 0.32; relative viability (NCI-H1437; first compound 0.253 µM): 0.297; relative viability (NCI-H1437; first compound 0.8 µM): 0.301; relative viability (NCI-H1437; first compound 2.53 µM): 0.194; relative viability (NCI-H2347; first compound 0.08 µM): 0.403; relative viability (NCI-H2347; first compound 0.253 µM): 0.412; relative viability (NCI-H2347; first compound 0.8 µM): 0.435; relative viability (NCI-H2347; first compound 2.53 µM): 0.429; relative viability (ChaGo-K-1; first compound 0.08 µM): 0.99; relative viability (ChaGo-K-1; first compound 0.253 µM): 0.925; relative viability (ChaGo-K-1; first compound 0.8 µM): 0.915; relative viability (ChaGo-K-1; first compound 2.53 µM): 0.887
